The test system of the data set is Gambusia affinis. Nature of the data set: Ichthyotoxicity against Gambusia affinis at 10 ppm. The format is organism-based. The note with it: in vivo.
`CC1(C)CCC[C@]2(C)[C@H]3CC(=O)[C@]4(C)[C@@H]5C(=CC[C@H]4[C@]3(C)CC[C@@H]12)CO[C@H]5O`: the Activity entry was “Toxic”. `CC(=O)O[C@@H]1OCC2=CC[C@H]3[C@]4(C)CC[C@H]5C(C)(C)CCC[C@]5(C)[C@H]4CC(=O)[C@]3(C)[C@H]21`: the Activity result is listed as “Toxic”.

In the case of `CC1(C)CCC[C@]2(C)[C@H]3CC(=O)[C@]4(C)[C@@H](C=O)C(C=O)=CC[C@H]4[C@]3(C)CC[C@@H]12`, the Activity entry is recorded as “Toxic”.

For `CC(=O)O[C@H]1C[C@@H]2[C@@]3(C)CCCC(C)(C)[C@@H]3CC[C@@]2(C)[C@@H]2CC=C3CO[C@@H](O)[C@@H]3[C@@]12C`, the Activity entry is “Toxic”.

On to `CC1(C)CCC[C@]2(C)[C@H]3C[C@H](O)[C@]4(C)[C@@H](C=O)C(C=O)=CC[C@H]4[C@]3(C)CC[C@@H]12`, for which the Activity result is listed as “Toxic”. In the case of `CC(=O)O[C@@H]1OCC2=CC[C@H]3[C@]4(C)CC[C@H]5C(C)(C)CCC[C@]5(C)[C@H]4C[C@H](OC(C)=O)[C@]3(C)[C@H]21` [DEOXOSCALARIN ACETATE] it was “Not Active”; in that of `CC(=O)O[C@H]1C[C@@H]2[C@@]3(C)CCCC(C)(C)[C@@H]3CC[C@@]2(C)[C@@H]2CC=C(C=O)[C@H](C=O)[C@@]12C` [SCALARADIAL], “Toxic”.

The values above are taken from ChEMBL document CHEMBL1148986, “Scalarane metabolites of the nudibranch Glossodoris rufomarginata and Its dietary sponge from the South China Sea” (J Nat Prod, 2004).
